A short description of data set [1]: Inhibition of Escherichia coli methionine aminopeptidase.
The nature of data set [2]: Inhibition of Haemophilus influenzae methionine aminopeptidase.
Data set [3] can be described thus: Inhibition of Streptococcus pneumoniae methionine aminopeptidase.
The nature of data set [4]: Solubility of the compound. The data set is classed as physicochemical.
The nature of data set [5]: Lipophilicity, log D of the compound. It is filed as physicochemical. Particulars: octanol/water.
The nature of data set [6]: Unbound fraction in plasma (unknown origin). It is filed as ADME, cell-free.
The nature of data set [7]: Intrinsic clearance in rat liver microsomes. It is filed as ADME. The settings on record: read-out: CLH.
Data set [8] can be described thus: Inhibition of Staphylococcus aureus methionine aminopeptidase.

Values after ≈ are worked out from the molar mass of the structure shown. Residues, ends and D or L forms follow the SMILES beside them. *: point of attachment. Cbz = O=C(OCc1ccccc1)*

As to `CC(=O)N[C@@H](C)C(=O)N[C@H]1CC=C[C@H](c2ccccc2)N(C)C1=O`, the IC50 in data set [1], in data set [2] and in data set [3] was over 200 µM each time.

Consider `C[C@H](NC(=O)[C@@H](N)Cc1ccccc1)C(=O)N[C@H]1CC=C[C@H](C2CCCCC2)N(C)C1=O`, for which the half-inhibitory concentration (IC50) came to 2.2 µM in data set [1], 4.7 µM in data set [2] and 9.7 µM in data set [3]. Also, in data set [4], the solubility is over 1000 µM. Moreover, the log distribution coefficient (logD) in data set [5] is 2.2. Moreover, in data set [6], the fraction unbound amounted to 0.109. The microsomal CLint in data set [7] is 689 µL/min/mg.

Consider `C[C@@H](C(=O)N[C@H]1CC=C[C@H](c2ccccc2)N(C)C1=O)N(C)C(=O)OCc1ccccc1`, for which the IC50 in data set [1], in data set [2] and in data set [3] was over 200 µM throughout.

Take `C[C@H](N)C(=O)N[C@@H](C)C(=O)N[C@H]1CC=C[C@H](C2CCCCC2)N(C)C1=O`: the IC50 in data set [1], in data set [2] and in data set [3] was over 200 µM in each case.

As to `CN1C(=O)[C@@H](NC(=O)[C@H](CO)NC(=O)OCc2ccccc2)CC=C[C@@H]1c1ccccc1`, the concentration for half-maximal inhibition (IC50) in data set [1] was 102 µM; in data set [2], 132 µM; in data set [3], 71.4 µM.

Turning to `C[C@H](NC(=O)[C@H](C)NC(=O)OCc1ccccc1)C(N)=O` (Cbz-Ala-Ala-NH2), the IC50 in data set [1], in data set [2] and in data set [3] was over 200 µM each time.

Take `C[C@H](NC(=O)OCc1ccccc1)C(=O)N[C@H]1CC=C[C@@H](c2ccccc2)N(C)C1=O`: the half-inhibitory concentration (IC50) in data set [1], in data set [2] and in data set [3] was over 200 µM throughout.

For `CN1C(=O)[C@@H](NC(=O)C(C)(C)NC(=O)OCc2ccccc2)CC=C[C@@H]1c1ccccc1`, the IC50 in data set [1], in data set [2] and in data set [3] was over 200 µM throughout.

For the molecule `C[C@H](NC(=O)[C@H](N)c1ccccc1)C(=O)N[C@H]1CC=C[C@H](C2CCCCC2)N(C)C1=O`, the IC50 came to 8 µM in data set [1], 15.6 µM in data set [2] and 4 µM in data set [3].

Take `C[C@H](NC(=O)[C@@H](N)c1ccccc1)C(=O)N[C@H]1CC=C[C@H](C2CCCCC2)N(C)C1=O`: the half-inhibitory concentration (IC50) came to 1.4 µM in data set [1], 6.7 µM in data set [2] and 0.12 µM in data set [3]. In data set [4], this molecule came in with a solubility of over 1000 µM. The logD in data set [5] is 1.98. Further, in data set [6], the unbound share (fraction unbound) worked out at 0.108. Besides, the microsomal CLint in data set [7] came to 93.5 µL/min/mg.

Turning to `C[C@H](NC(=O)Cc1cc(F)cc(F)c1)C(=O)N[C@H]1CC=C[C@H](c2ccccc2)N(C)C1=O`, the IC50 in data set [1] is 30 µM; in data set [2] it was 60 µM; in data set [3], 46 µM; in data set [8], over 200 µM. Further, the concentration in solution in data set [4] (solubility) was 450 µM (≈ 199 µg/mL). Also, in data set [5], the log distribution coefficient (logD) turned out to be 2.6. Moreover, in data set [6], the fraction unbound came out at 0.051. Further, the microsomal CLint in data set [7] came out at 339 µL/min/mg.

Regarding `C[C@H](NC(=O)[C@@H](N)c1cccc(Cl)c1)C(=O)N[C@H]1CC=C[C@H](C2CCCCC2)N(C)C1=O`, the IC50 in data set [1] turned out to be 0.8 µM; in data set [2], 1.1 µM; in data set [3], 0.3 µM. Also, in data set [4], the concentration in solution (solubility) came to 888 µM (≈ 409 µg/mL). The same molecule returned a logD in data set [5] of 2.69. This molecule gave a free fraction (fraction unbound) in data set [6] of 0.016. The microsomal CLint in data set [7] was determined as 159 µL/min/mg.

As to `C[C@H](NC(=O)OCc1ccccc1)C(=O)N[C@H]1CC=C[C@H](c2ccccc2)N(C)C1=O`, the IC50 amounted to 8.1 µM in data set [1], 11.3 µM in data set [2] and 7.4 µM in data set [3]. Further, in data set [4], the solubility was 341 µM (≈ 144 µg/mL). Further, in data set [5], the logD turned out to be 1.65. For the same molecule, the fraction unbound in data set [6] worked out at 0.027. Further, in data set [7], the microsomal CLint is 720 µL/min/mg.

Turning to `CC(C)[C@H](NC(=O)OCc1ccccc1)C(=O)N[C@H]1CC=C[C@H](c2ccccc2)N(C)C1=O`, the IC50 in data set [1], in data set [2] and in data set [3] was over 200 µM each time.

The values are drawn from ChEMBL document CHEMBL3600368, “Novel broad-spectrum inhibitors of bacterial methionine aminopeptidase” (Bioorg Med Chem Lett, 2015).
